The series has as its system T-cells in HAM/TSP patient PBMC culture. The series is described as follows: Ex vivo spontaneous T-cell proliferation assay using HAM/TSP peripheral blood. The following applies: FIG. 4D. It is filed as cell-based, human. The protocol:
Proliferation assays were performed on HAM/TSP patient blood samples with and without the addition of BNZ-γ. These assays evaluated the ability of BNZ-γ to block the function of cytokines, such as IL-2 and IL-15, present in the ex vivo HAM/TSP patient blood culture and prevent spontaneous T-cell proliferation in these samples.
In an ex vivo spontaneous T-cell proliferation assay, PBMC from HAM/TSP patient was cultured at 1×10(6) cells per well of a 96 well plate in RPMI-10% FCS. Increasing concentrations of BNZ-γ peptide were added to each well. As a control, an irrelevant peptide was used in similar fashion. The cells were incubated in a 37° C. CO2 incubator for 3, 4, and 6 days. The amount of 1 uCi of ^3H-thymidine was added to the cells. After an additional 6 hour incubation, cells were harvested their proliferation rate was measured. As indicated in FIG. 4A-FIG. 4D, BNZ-γ peptide inhibits the spontaneous proliferation of T-cells in HAM/TSP culture at a concentration of about 1 ug/ml.
Other immunological markers were additionally measured in this assay. The percentage of the viral specific CD8 cells was measured during the ex vivo culture using viral protein tetramers. The population of CD4+CD25+ cells, a marker of T-cell activation, as well as Ki67 staining, a marker of T-cell proliferation, was monitored in a flow cytometry assay.

Peptide text beside a SMILES is read from it.

As for `CC[C@H](C)[C@H](N)C(=O)N[C@@H](CCCCN)C(=O)N[C@@H](CCC(=O)O)C(=O)N[C@@H](Cc1ccccc1)C(=O)N[C@@H](CC(C)C)C(=O)N[C@@H](CCC(N)=O)C(=O)N[C@@H](CCCNC(=N)N)C(=O)N[C@@H](Cc1ccccc1)C(=O)N[C@H](C(=O)N[C@@H](Cc1c[nH]cn1)C(=O)N[C@H](C(=O)N[C@H](C(=O)N[C@@H](CCC(N)=O)C(=O)N[C@@H](CO)C(=O)N[C@H](C(=O)N[C@H](C(=O)N[C@@H](CC(N)=O)C(=O)N[C@H](C(=O)N[C@@H](CO)C(=O)O)[C@@H](C)O)[C@@H](C)CC)[C@@H](C)CC)C(C)C)[C@@H](C)CC)[C@@H](C)CC` [BNZ-γ, I-K-E-F-L-Q-R-F-I-H-I-V-Q-S-I-I-N-T-S] (H-IKEFLQRFIHIVQSIINTS-OH), the “percent of live cells by Guava staining” value was “not impacted”.

Values taken from US10030058B2, “Modulating gamma-C-cytokine activity” (Bioniz, LLC, priority 2015, dated 2018).
